Laboratory results as given in patent US11147272B2, “Pyridone compounds and agricultural and horticultural fungicides comprising the same as active ingredients” (MITSUI CHEMICALS AGRO, INC., priority 2017, dated 2021).

Legend:
Plasmopara viticola = assay: Test Example G: Downy mildew on vine; conditions: Downy mildew on vine (Neomuscat); 250 ppm spray, 2.5 ml/pot; assessed 7 to 10 days after inoculation
Phytophthora infestans = assay: whole plant or invertebrate; format: in vivo; conditions: Late blight on tomato; class of control value
[1] = test system: Colletotrichum orbiculare; assay: Test Example H: Anthracnose on cucumber; conditions: Anthracnose on cucumber (Sagami Hanjiro); 250 ppm spray, 2.5 ml/pot; assessed 6 to 10 days after inoculation
Description: Seeds of a test plant (cucumber variety: Sagami Hanjiro) were planted and cultivated until the first leaf appeared. In the test, the inventive compounds were dissolved into dimethyl sulfoxide-methanol mixture solution (volume ratio: 9/1), and the resultant solutions were diluted with well water to a concentration of 250 ppm to obtain the drug solutions. The drug solutions were sprayed to the test plant (2.5 ml/pot). After the drug solutions dried, a conidial suspension (2-4×10^5 conidia/ml) of Colletotrichum orbiculare was inoculated to the plant by spraying. After the inoculation, the plant was kept in a mist chamber at room temperature of 20 to 23° C. for about 24 hours to promote the onset of disease. The degrees of disease development were investigated 6 to 10 days after the inoculation, and the effectiveness of the drug solutions was evaluated.
In Test Examples described above, the degrees of disease development were evaluated in increments of 0.05 from 0 (as no incidence of disease) to 3 (as the degree of disease development in an untreated plant group). Further, control values were calculated using the following equation based on the degree of disease development.
n=Degree of disease development in each treated group
In the table, H: more than 50% control value, L: 50% or less control value, and nt: not tested.

Magnaporthe grisea = assay: whole plant or invertebrate; format: in vivo; conditions: Blast on rice; class of control value
Alternaia brassicicola = assay: Test Example C: Alternaria sooty spot on cabbage; format: in vivo; conditions: Alternaria sooty spot on cabbage; class of control value
Description: Seeds of a test plant (cabbage variety: Shikidori) were planted and cultivated until the cotyledons extended.
<Control Value> Control value=100{1−(n/3)}

Puccinia recondita = assay: Test Example E: Brown rust on wheat; format: in vivo; conditions: Brown rust on wheat; class of control value
[2] = test system: Blumeria graminis f. sp. hordei; assay: Test Example D: Powdery mildew on barley; conditions: Powdery mildew on barley; class of control value
Botrytis cinerea = assay: Test Example B: Gray mold on tomato; conditions: Gray mold on tomato; class of control value

| SMILES | Test G control value class (Plasmopara viticola) | Test F control value class (Phytophthora infestans) | Test H control value class [1] | Test A control value class (Magnaporthe grisea) | Test C control value class (Alternaia brassicicola) | Test E control value class (Puccinia recondita) | Test D control value class [2] | Test B control value class (Botrytis cinerea) |
| --- | --- | --- | --- | --- | --- | --- | --- | --- |
| CCn1c(-c2c(F)cc(OC)cc2F)c(CC(C)C)cc(Cl)c1=O [compound 42] | H (more than 50% control value) | L (50% or less control value) | H (more than 50% control value) | H (more than 50% control value) | H (more than 50% control value) | H (more than 50% control value) | H (more than 50% control value) | H (more than 50% control value) |
| CCn1c(-c2c(F)cc(OC)cc2F)c(CC(C)C)cc(Br)c1=O [compound 43] | H (more than 50% control value) | L (50% or less control value) | H (more than 50% control value) | H (more than 50% control value) | H (more than 50% control value) | H (more than 50% control value) | H (more than 50% control value) | H (more than 50% control value) |
| CCn1c(-c2c(F)cccc2F)c(CO)cc(Cl)c1=O [compound 44] | L (50% or less control value) | L (50% or less control value) | L (50% or less control value) | L (50% or less control value) | H (more than 50% control value) | H (more than 50% control value) | L (50% or less control value) | H (more than 50% control value) |
| CCn1c(-c2c(F)cccc2F)c(COC)cc(Cl)c1=O [compound 45] | L (50% or less control value) | L (50% or less control value) | L (50% or less control value) | H (more than 50% control value) | H (more than 50% control value) | H (more than 50% control value) | H (more than 50% control value) | H (more than 50% control value) |
| CCC(O)c1cc(Cl)c(=O)n(CC)c1-c1c(F)cc(F)cc1F (centres unmarked) [compound 46] | L (50% or less control value) | L (50% or less control value) | H (more than 50% control value) | H (more than 50% control value) | H (more than 50% control value) | H (more than 50% control value) | H (more than 50% control value) | H (more than 50% control value) |
| CCC(OC)c1cc(Cl)c(=O)n(CC)c1-c1c(F)cc(F)cc1F (centres unmarked) [compound 47] | H (more than 50% control value) | L (50% or less control value) | H (more than 50% control value) | H (more than 50% control value) | H (more than 50% control value) | H (more than 50% control value) | H (more than 50% control value) | H (more than 50% control value) |
| CCC(OC)c1cc(Cl)c(=O)n(CC)c1-c1c(F)cc(OC)cc1F (centres unmarked) [compound 48] | H (more than 50% control value) | L (50% or less control value) | H (more than 50% control value) | H (more than 50% control value) | H (more than 50% control value) | H (more than 50% control value) | H (more than 50% control value) | H (more than 50% control value) |
| CCC(=O)c1cc(Cl)c(=O)n(CC)c1-c1c(F)cc(F)cc1F [compound 49] | L (50% or less control value) | L (50% or less control value) | H (more than 50% control value) | H (more than 50% control value) | H (more than 50% control value) | H (more than 50% control value) | H (more than 50% control value) | H (more than 50% control value) |
| CCC(O)c1cc(Cl)c(=O)n(CC)c1-c1c(F)cc(OC)cc1F (centres unmarked) [compound 50] | H (more than 50% control value) | L (50% or less control value) | H (more than 50% control value) | H (more than 50% control value) | H (more than 50% control value) | H (more than 50% control value) | L (50% or less control value) | H (more than 50% control value) |
| CCC(=O)c1cc(Cl)c(=O)n(CC)c1-c1c(F)cc(OC)cc1F [compound 51] | L (50% or less control value) | L (50% or less control value) | H (more than 50% control value) | H (more than 50% control value) | H (more than 50% control value) | H (more than 50% control value) | H (more than 50% control value) | H (more than 50% control value) |
| CCn1c(-c2c(F)cc(F)cc2F)c(C(C)(O)CC)cc(Cl)c1=O (centres unmarked) [compound 52] | H (more than 50% control value) | L (50% or less control value) | H (more than 50% control value) | H (more than 50% control value) | H (more than 50% control value) | H (more than 50% control value) | H (more than 50% control value) | H (more than 50% control value) |
| CCn1c(-c2c(F)cc(F)cc2F)c(C(C)(CC)OC)cc(Cl)c1=O (centres unmarked) [compound 54] | L (50% or less control value) | L (50% or less control value) | H (more than 50% control value) | H (more than 50% control value) | H (more than 50% control value) | H (more than 50% control value) | H (more than 50% control value) | H (more than 50% control value) |
| CCn1c(-c2c(F)cc(OC)cc2F)c(C(C)(CC)OC)cc(Cl)c1=O (centres unmarked) [compound 55] | L (50% or less control value) | L (50% or less control value) | H (more than 50% control value) | H (more than 50% control value) | H (more than 50% control value) | H (more than 50% control value) | H (more than 50% control value) | H (more than 50% control value) |
| CCn1c(-c2c(F)cc(F)cc2F)c(C(C)(F)CC)cc(Cl)c1=O (centres unmarked) [compound 56] | H (more than 50% control value) | L (50% or less control value) | H (more than 50% control value) | H (more than 50% control value) | H (more than 50% control value) | H (more than 50% control value) | H (more than 50% control value) | H (more than 50% control value) |
| CCn1c(-c2c(F)cccc2F)c(COC(C)C)cc(Cl)c1=O [compound 57] | L (50% or less control value) | L (50% or less control value) | H (more than 50% control value) | L (50% or less control value) | H (more than 50% control value) | H (more than 50% control value) | H (more than 50% control value) | H (more than 50% control value) |
| CCn1c(-c2c(F)cc(F)cc2F)c(COC(C)C)cc(Cl)c1=O [compound 58] | L (50% or less control value) | L (50% or less control value) | H (more than 50% control value) | H (more than 50% control value) | H (more than 50% control value) | H (more than 50% control value) | H (more than 50% control value) | H (more than 50% control value) |
